Test results published in patent US8455474B2, “Method for treating tuberculosis” (Mackay Memorial Hospital, priority 2011, dated 2013).

Columns and labels:
[1] = tested on: Mycobacterium tuberculosis; assay: Killing kinetics in vitro (7H9 broth OD600, CFU on 7H11 agar); assay type: cell-based
Method: Mycobacterium tuberculosis strains were obtained from the culture collection of the Mycobacteriology Laboratory, Mackay Memorial Hospital, Taipei, Taiwan. The organisms were cultured on Lowenstein-Jensen medium slant at 37° C. in a 10% CO2 humidified atmosphere. In mid-log phase, the colonies were harvested and resuspended with PBS. The turbidity of suspension was adjusted to a McFarland 0.5 standard, containing approximately 1×10^8 bacteria/ml.
Strains were grown in 7H9 medium and the turbidity of suspension was adjusted to a McFarland 0.5 standard and used as inocula after ten-fold dilution in 7H9 medium with or without various concentrations of EZETIMIBE. The kinetics of bactericidal effect of EZETIMIBE was estimated by measuring the optical density at 600 nm at the indicated time points, followed by plating for colony formation unit (CFU) enumeration on 7H11 agar plates.

[2] = tested on: M. tuberculosis internalization into monocytes; assay: Internalization of M. tuberculosis by monocytes (flow cytometry); assay type: cell-based, Mycobacterium tuberculosis
Method: (§1) Peripheral blood mononuclear cells were isolated from whole blood by means of Ficoll-Paque gradient centrifugation. Monocytes were incubated with CD14 microbeads, after which the CD14-positive cells were separated out by a magnet. These cells were seeded in U-bottom 96-well plates at a density of 2×10^5 cells in a volume of 200 μl of PRMI-1640 medium with 10% FCS and cultured for 1 hour in the presence or absence of EZETIMIBE (resolved in alcohol). Next, 5×10^5 M. tuberculosis bacteria were added to each well, followed by incubation for 24 hours. Cell viability was tested by using trypan blue staining. In the post-treatment experiment, monocytes were infected with M. tuberculosis bacteria for 1 hour and then added with EZETIMIBE for another 24 hours. In the cholesterol supplement experiment, water soluble cholesterol (Sigma) was resolved in sterile deionized water and added into the culture medium with or without EZETIMIBE.
Infected monocytes described above receiving either EZETIMIBE or control were washed with PBS to remove unbound bacteria and fixed with 4% formalin for 24 hours at 4° C. Then cells were permeabilized by using permeabilization buffer and stained with fluorescein isothiocyanate-conjugated anti-M. tuberculosis antibody for 1 hour at 4° C. The fluorescence intensity of intracellular M. tuberculosis was than analyzed by flow cytometry. Stained cells were evaluated by FACS Calibur flow cytometer (BD Bioscience). Analysis was performed using CellQuest software (BD Bioscience).
As shown in FIGS. 2A-2D, the experiments were performed to assess whether the treatment of EZETIMIBE affected M. tuberculosis internalization into monocytes, and the monocytes were pretreated with EZETIMIBE for 24 hours or 48 hours.

[3] = tested on: intracellular M. tuberculosis in monocytes; assay: Intracellular survival of M. tuberculosis in monocytes (CFU assay); assay type: cell-based, Mycobacterium tuberculosis
CD13 = molecular target: T1, CD13 (Homo sapiens, UniProt P15144); assay: CD13 expression on monocytes (antiCD13 antibody staining); assay type: cell-based; conditions: monocytes pretreated 24 or 48 hours, clones WM15 and WM47
T1 construct: whether the treatment of EZETIMIBE affected CD13 expression on monocytes; endogenous in cells; host or cells: monocytes

monocytes = assay: Cholesterol uptake of monocytes (nile red staining, flow cytometry); assay type: cell-based; conditions: cholesterol supplement 10 μg/ml
Method: as §1
A stock solution of nile red (1 mg/ml) in acetone was prepared and stored at 4° C. and protected from light. The nile red solution was added to the cell preparation (final concentration: 1 μg/ml) for 10 minutes and excess dye was washed away with PBS. Nile red fluorescence was examined at two spectral settings, yellow-gold fluorescence (FL1 channel, excitation, 488 nm; emission, 530±30 nm) for cytoplasmic neutral lipids and red fluorescence (FL2 channel, excitation, 488 nm; emission, 585±21 nm) for polar lipids, consist of phospholipids, other amphipathic lipids, and strongly hydrophobic proteins of cell membranes as reported. Stained cells were evaluated by FACS Calibur flow cytometer (BD Bioscience). Analysis was performed using CellQuest software (BD Bioscience).
As shown in FIGS. 5A-B, monocytes were infected with M. tuberculosis bacteria followed by treatment with EZETIMIBE for 24 hours. Nile red staining was used to assess the intracellular lipid droplets by flow cytometry. Nile red fluorescence was examined at two spectral settings, yellow-gold fluorescence (FL1 channel, excitation, 488 nm; emission, 530±30 nm) for cytoplasmic neutral lipids, included triglyceride, cholesterol, cholesterol esters and free fatty acid, and red fluorescence (FL2 channel, excitation, 488 nm; emission, 585±21 nm) for polar lipids. Significant increase fluorescence intensity of FL1 channel not FL2 channel was observed following cholesterol supplement (10 μg/ml) in monocytes culture without infection, and EZETIMIBE (10 μg/ml and 20 μg/ml) can inhibit the uptake of cholesterol by reducing the relative fluorescence of FL1 channel from 1.5 to 1.2 and 1.3, respectively.

[4] = tested on: intracellular M. tuberculosis in monocytes; assay: Intracellular survival of M. tuberculosis in monocytes with cholesterol supplement (CFU assay); assay type: cell-based, Mycobacterium tuberculosis; conditions: post-treatment 24 hours

T1 sequence (P15144 whole entry): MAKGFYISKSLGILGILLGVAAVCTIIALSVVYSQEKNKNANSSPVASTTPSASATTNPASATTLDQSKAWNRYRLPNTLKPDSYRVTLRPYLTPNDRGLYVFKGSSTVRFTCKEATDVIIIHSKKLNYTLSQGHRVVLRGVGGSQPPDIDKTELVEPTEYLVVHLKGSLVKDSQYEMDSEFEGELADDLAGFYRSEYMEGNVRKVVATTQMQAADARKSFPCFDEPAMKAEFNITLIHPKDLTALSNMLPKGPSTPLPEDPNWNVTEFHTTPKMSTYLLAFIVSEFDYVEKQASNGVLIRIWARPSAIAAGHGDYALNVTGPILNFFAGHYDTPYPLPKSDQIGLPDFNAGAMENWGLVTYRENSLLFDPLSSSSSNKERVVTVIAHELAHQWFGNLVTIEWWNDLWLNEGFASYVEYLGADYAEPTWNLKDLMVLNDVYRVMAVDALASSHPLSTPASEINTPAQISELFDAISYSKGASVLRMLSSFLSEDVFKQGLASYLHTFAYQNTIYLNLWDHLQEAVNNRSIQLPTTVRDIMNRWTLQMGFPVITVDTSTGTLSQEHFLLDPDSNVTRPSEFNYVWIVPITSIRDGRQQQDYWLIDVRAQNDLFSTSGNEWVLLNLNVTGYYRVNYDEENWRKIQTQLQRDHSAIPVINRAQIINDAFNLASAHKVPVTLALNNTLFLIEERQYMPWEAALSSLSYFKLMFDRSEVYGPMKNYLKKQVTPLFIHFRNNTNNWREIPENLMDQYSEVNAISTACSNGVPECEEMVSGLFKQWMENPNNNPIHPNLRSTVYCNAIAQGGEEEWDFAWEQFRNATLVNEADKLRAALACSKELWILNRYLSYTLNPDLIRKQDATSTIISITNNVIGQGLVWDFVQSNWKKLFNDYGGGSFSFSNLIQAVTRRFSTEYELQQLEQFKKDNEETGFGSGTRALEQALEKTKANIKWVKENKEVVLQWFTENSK

## O=C1[C@H](CC[C@H](O)c2ccc(F)cc2)[C@@H](c2ccc(O)cc2)N1c1ccc(F)cc1 [EZETIMIBE, (3R,4S)-1-(4-fluorophenyl)-3-[(3S)-3-(4-fluorophenyl)-3-hydroxypropyl]-4-(4-hydroxyphenyl)zetidin-2-one]
[1]; 15 and 30 μg/ml for 72 hours, read at 3rd week (FIG. 1C)
  colony-forming units (CFU) of Mycobacterium tuberculosis on 7H11 agar plate: significantly reduced
[1]; FIG. 1B
  M. tuberculosis survival in suspension with increasing amount of bacteria: inhibition on M. tuberculosis survival was found
[1]; increasing concentrations, 2nd and 3rd week (FIG. 1A)
  growth of Mycobacterium tuberculosis in 7H9 broth: inhibition effect on growth
[2]; post-treatment of monocytes, 24 hours
  entry reduction of M. tuberculosis into monocytes: up to 0.65%
[2]; post-treatment of monocytes, 48 hours
  entry reduction of M. tuberculosis into monocytes: ≤ 26.02%
[2]; pre-treatment of monocytes, 48 hours
  entry reduction of M. tuberculosis into monocytes: up to 18.28%
[3]; post-treatment: infection 1 hour then 10 ng/ml for 24 hours, without drug 8320
  CFU counts: 4090 per 10,000 cells
[3]; post-treatment: infection 1 hour then 20 ng/ml for 24 hours, without drug 8320
  CFU counts: 2858 per 10,000 cells
[3]; pre-treatment 1 hour then infection 24 hours, 10 ng/ml, without drug 7358
  CFU counts: 5880 per 10,000 cells
[3]; pre-treatment 1 hour then infection 24 hours, 20 ng/ml, without drug 7358
  CFU counts: 4000 per 10,000 cells
CD13
  CD13 expression on monocytes: down-regulation of CD13 expression
monocytes; M. tuberculosis infected monocytes, 24 hours, EZETIMIBE 10 μg/ml, without drug 1.4
  relative fluorescence of FL1 channel (nile red, neutral lipids): 0.9
monocytes; M. tuberculosis infected monocytes, 24 hours, EZETIMIBE 20 μg/ml, without drug 1.4
  relative fluorescence of FL1 channel (nile red, neutral lipids): 1.0
monocytes; monocytes without infection, EZETIMIBE 10 μg/ml, without drug 1.5
  relative fluorescence of FL1 channel (nile red, neutral lipids): 1.2
monocytes; monocytes without infection, EZETIMIBE 20 μg/ml, without drug 1.5
  relative fluorescence of FL1 channel (nile red, neutral lipids): 1.3
[4]; EZETIMIBE 10 μg/ml, cholesterol supplement 10 μg/ml, without drug 10600
  CFU counts: 7692 per 10,000 cells
[4]; EZETIMIBE 10 μg/ml, cholesterol supplement 20 μg/ml
  CFU counts: 12545 per 10,000 cells
[4]; EZETIMIBE 20 μg/ml, cholesterol supplement 10 μg/ml, without drug 10600
  CFU counts: 4800 per 10,000 cells
[4]; EZETIMIBE 20 μg/ml, cholesterol supplement 20 μg/ml
  CFU counts: 10333 per 10,000 cells
